Source: PubChem BioAssay (NCI)
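In this assay, cells in 96-well plates receive the compound at five concentrations for 48 hours. Endpoints are linearly interpolated between the surrounding concentrations. Definition used: TGI = concentration required for complete inhibition of growth.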

What follows are compounds tested on HOP-62 NSCLC (assay: NCI tumour cell line growth inhibition, 48 h).

Structure (SMILES) | TGI [µM]
Cn1c2ccccc2c(=O)c2cccc(C(=O)NC(CS)C(=O)O)c21 (centres undefined) | > 100
COc1ccc(N=NC(=O)NC(CC(C)C)C(=O)NC(C)C(=O)O)cc1 (centres undefined) | > 100
CC(=O)OCC1OC(n2c(C)cc(C)c(C#N)c2=S)C(OC(C)=O)C(OC(C)=O)C1OC(C)=O (centres undefined) | > 100
COC(=O)NC(C(F)(F)F)(C(F)(F)F)P1(=O)OCCCO1 | 58.6
CCOC(=O)NNC(=O)NCCCCNC(=O)NNC(=O)OCC | > 100
COC(=O)c1nsc(OC)c1Cl | > 100
Cc1c2cccc-2c(OCCO)cc2c3ccccc3n(C)c12 | 16.1
c1ccc2c(c1)SCCC2NC1=NCCO1 (centres undefined) | > 100
C=CCN(C(=O)CNC(=O)C(F)(F)F)c1cc(OCc2ccccc2)c2c(c1)c(C)cn2S(=O)(=O)c1ccccc1 | > 100
COC1=C(Br)[C@H](O)[C@@]2(C=C1Br)CC(C(=O)NCCCOc1c(Br)cc(C(O)CNC(C)=O)cc1Br)=NO2 (some centres undefined) | > 10
COc1ccc(C[C@H]2COC(=O)[C@@H]2Cc2cccc(Br)c2)cc1OC | > 100
CSc1ccsc1-c1sc(-c2cc(SC)c(-c3sc(-c4cc(SC)c(-c5sccc5SC)s4)cc3SC)s2)cc1SC | > 100
COc1cccc(C2c3cc4c(cc3OC(C)(N3CCCC3)C2C)OCO4)c1 (centres undefined) | 20.6
CCSC1=N/C(=C\c2ccc(N(C)C)cc2)C(Cl)=N1 | > 100
COC1(OC)CCCc2c1no[n+]2[O-] | > 100
CC1=C(/C=C/C(C)=C/C=C/C(C)=C/C(=O)OC2CC(n3cc(F)c(=O)[nH]c3=O)OC2CO)C(C)(C)CCC1 (centres undefined) | 13.7
CC(C)C(C/C=C1\CC(CO)(COC(=O)C(C)(C)C)OC1=O)C(C)C (centres undefined) | 20.4
O=C1C=C(NCCOCCO)C(=O)c2c(O)ccc(O)c21 | > 100
CC(C)[Si]1(C(C)C)OCC2OC3(CO)C(Oc4nc(=O)ccn43)C2O[Si](C(C)C)(C(C)C)O1 (centres undefined) | 29.2

These compounds were tested on NCI/ADR-RES ovarian (assay: NCI tumour cell line growth inhibition, 48 h).

Structure (SMILES) | TGI [µM]
Cn1c2c(c3ccccc31)CCN1C(=O)CN(C(=O)C3CCCCC3)CC21 (centres undefined) | > 100
CCOC(=O)c1nc2cc(F)c(N3CCOCC3)cc2[nH]c1=O | > 100
CCCC(=O)N1CCN(c2ccc3c(c2)OC(C)O3)CC1 (centres undefined) | > 100
COC(=O)C1=C(O)c2ccc(Cl)cc2S(=O)(=O)N1C | 95
C=C(Nc1nc2ccc(C)cc2s1)C(=O)C(CC)C(=O)C(CC)CC1C(=O)NC(=O)NC1=O (centres undefined) | > 100
CCOC(=O)[C@H](C)OC(=O)[C@@](C)(NC(=O)c1ccccc1C(=O)OC)[C@@H]1NC=C(C(=O)OC)CS1 | > 100
Cn1c2ccccc2c(=O)c2cccc(C(=O)NC(CS)C(=O)O)c21 (centres undefined) | > 100
COc1ccc(N=NC(=O)NC(CC(C)C)C(=O)NC(C)C(=O)O)cc1 (centres undefined) | > 100
CC(=O)OCC1OC(n2c(C)cc(C)c(C#N)c2=S)C(OC(C)=O)C(OC(C)=O)C1OC(C)=O (centres undefined) | > 100
COC(=O)NC(C(F)(F)F)(C(F)(F)F)P1(=O)OCCCO1 | > 100
CCOC(=O)NNC(=O)NCCCCNC(=O)NNC(=O)OCC | > 100
COC(=O)c1nsc(OC)c1Cl | > 100
Cc1c2cccc-2c(OCCO)cc2c3ccccc3n(C)c12 | > 100
c1ccc2c(c1)SCCC2NC1=NCCO1 (centres undefined) | > 100
C=CCN(C(=O)CNC(=O)C(F)(F)F)c1cc(OCc2ccccc2)c2c(c1)c(C)cn2S(=O)(=O)c1ccccc1 | > 100
COC1=C(Br)[C@H](O)[C@@]2(C=C1Br)CC(C(=O)NCCCOc1c(Br)cc(C(O)CNC(C)=O)cc1Br)=NO2 (some centres undefined) | > 10
COc1ccc(C[C@H]2COC(=O)[C@@H]2Cc2cccc(Br)c2)cc1OC | > 100
CSc1ccsc1-c1sc(-c2cc(SC)c(-c3sc(-c4cc(SC)c(-c5sccc5SC)s4)cc3SC)s2)cc1SC | > 100
COc1cccc(C2c3cc4c(cc3OC(C)(N3CCCC3)C2C)OCO4)c1 (centres undefined) | 40.2
CCSC1=N/C(=C\c2ccc(N(C)C)cc2)C(Cl)=N1 | > 100
COC1(OC)CCCc2c1no[n+]2[O-] | > 100
CC1=C(/C=C/C(C)=C/C=C/C(C)=C/C(=O)OC2CC(n3cc(F)c(=O)[nH]c3=O)OC2CO)C(C)(C)CCC1 (centres undefined) | 24.9
CC(C)C(C/C=C1\CC(CO)(COC(=O)C(C)(C)C)OC1=O)C(C)C (centres undefined) | 32.4
O=C1C=C(NCCOCCO)C(=O)c2c(O)ccc(O)c21 | 65.7
CC(C)[Si]1(C(C)C)OCC2OC3(CO)C(Oc4nc(=O)ccn43)C2O[Si](C(C)C)(C(C)C)O1 (centres undefined) | 41.6

Each compound was assayed on MALME-3M melanoma (assay: NCI tumour cell line growth inhibition, 48 h).

Structure (SMILES) | TGI [µM]
Cn1c2c(c3ccccc31)CCN1C(=O)CN(C(=O)C3CCCCC3)CC21 (centres undefined) | > 100
CCOC(=O)c1nc2cc(F)c(N3CCOCC3)cc2[nH]c1=O | > 100
CCCC(=O)N1CCN(c2ccc3c(c2)OC(C)O3)CC1 (centres undefined) | > 100
COC(=O)C1=C(O)c2ccc(Cl)cc2S(=O)(=O)N1C | > 100
CCOC(=O)[C@H](C)OC(=O)[C@@](C)(NC(=O)c1ccccc1C(=O)OC)[C@@H]1NC=C(C(=O)OC)CS1 | > 100
Cn1c2ccccc2c(=O)c2cccc(C(=O)NC(CS)C(=O)O)c21 (centres undefined) | > 100
COc1ccc(N=NC(=O)NC(CC(C)C)C(=O)NC(C)C(=O)O)cc1 (centres undefined) | > 100
CC(=O)OCC1OC(n2c(C)cc(C)c(C#N)c2=S)C(OC(C)=O)C(OC(C)=O)C1OC(C)=O (centres undefined) | > 100
COC(=O)c1nsc(OC)c1Cl | > 100
Cc1c2cccc-2c(OCCO)cc2c3ccccc3n(C)c12 | 17
c1ccc2c(c1)SCCC2NC1=NCCO1 (centres undefined) | > 100
C=CCN(C(=O)CNC(=O)C(F)(F)F)c1cc(OCc2ccccc2)c2c(c1)c(C)cn2S(=O)(=O)c1ccccc1 | > 100
COC1=C(Br)[C@H](O)[C@@]2(C=C1Br)CC(C(=O)NCCCOc1c(Br)cc(C(O)CNC(C)=O)cc1Br)=NO2 (some centres undefined) | > 10
COc1ccc(C[C@H]2COC(=O)[C@@H]2Cc2cccc(Br)c2)cc1OC | 47.6
CSc1ccsc1-c1sc(-c2cc(SC)c(-c3sc(-c4cc(SC)c(-c5sccc5SC)s4)cc3SC)s2)cc1SC | 81.7
COc1cccc(C2c3cc4c(cc3OC(C)(N3CCCC3)C2C)OCO4)c1 (centres undefined) | 64.7
CCSC1=N/C(=C\c2ccc(N(C)C)cc2)C(Cl)=N1 | > 100
COC1(OC)CCCc2c1no[n+]2[O-] | > 100
CC1=C(/C=C/C(C)=C/C=C/C(C)=C/C(=O)OC2CC(n3cc(F)c(=O)[nH]c3=O)OC2CO)C(C)(C)CCC1 (centres undefined) | 31.9
CC(C)C(C/C=C1\CC(CO)(COC(=O)C(C)(C)C)OC1=O)C(C)C (centres undefined) | 23.5
O=C1C=C(NCCOCCO)C(=O)c2c(O)ccc(O)c21 | 24.2

Each compound was assayed on MDA-MB-231 breast (assay: NCI tumour cell line growth inhibition, 48 h).

Structure (SMILES) | TGI [µM]
Cn1c2c(c3ccccc31)CCN1C(=O)CN(C(=O)C3CCCCC3)CC21 (centres undefined) | > 100
CCOC(=O)c1nc2cc(F)c(N3CCOCC3)cc2[nH]c1=O | > 100
CCCC(=O)N1CCN(c2ccc3c(c2)OC(C)O3)CC1 (centres undefined) | > 100
COC(=O)C1=C(O)c2ccc(Cl)cc2S(=O)(=O)N1C | > 100
C=C(Nc1nc2ccc(C)cc2s1)C(=O)C(CC)C(=O)C(CC)CC1C(=O)NC(=O)NC1=O (centres undefined) | > 100
CCOC(=O)[C@H](C)OC(=O)[C@@](C)(NC(=O)c1ccccc1C(=O)OC)[C@@H]1NC=C(C(=O)OC)CS1 | > 100
Cn1c2ccccc2c(=O)c2cccc(C(=O)NC(CS)C(=O)O)c21 (centres undefined) | > 100
COc1ccc(N=NC(=O)NC(CC(C)C)C(=O)NC(C)C(=O)O)cc1 (centres undefined) | > 100
CC(=O)OCC1OC(n2c(C)cc(C)c(C#N)c2=S)C(OC(C)=O)C(OC(C)=O)C1OC(C)=O (centres undefined) | > 100
COC(=O)NC(C(F)(F)F)(C(F)(F)F)P1(=O)OCCCO1 | 62.9
CCOC(=O)NNC(=O)NCCCCNC(=O)NNC(=O)OCC | > 100
COC(=O)c1nsc(OC)c1Cl | > 100
Cc1c2cccc-2c(OCCO)cc2c3ccccc3n(C)c12 | 10
c1ccc2c(c1)SCCC2NC1=NCCO1 (centres undefined) | > 100
C=CCN(C(=O)CNC(=O)C(F)(F)F)c1cc(OCc2ccccc2)c2c(c1)c(C)cn2S(=O)(=O)c1ccccc1 | > 100
COC1=C(Br)[C@H](O)[C@@]2(C=C1Br)CC(C(=O)NCCCOc1c(Br)cc(C(O)CNC(C)=O)cc1Br)=NO2 (some centres undefined) | > 10
COc1ccc(C[C@H]2COC(=O)[C@@H]2Cc2cccc(Br)c2)cc1OC | 64.9
CSc1ccsc1-c1sc(-c2cc(SC)c(-c3sc(-c4cc(SC)c(-c5sccc5SC)s4)cc3SC)s2)cc1SC | > 100
COc1cccc(C2c3cc4c(cc3OC(C)(N3CCCC3)C2C)OCO4)c1 (centres undefined) | 27.4
CCSC1=N/C(=C\c2ccc(N(C)C)cc2)C(Cl)=N1 | > 100
COC1(OC)CCCc2c1no[n+]2[O-] | > 100
CC1=C(/C=C/C(C)=C/C=C/C(C)=C/C(=O)OC2CC(n3cc(F)c(=O)[nH]c3=O)OC2CO)C(C)(C)CCC1 (centres undefined) | 29.4
CC(C)C(C/C=C1\CC(CO)(COC(=O)C(C)(C)C)OC1=O)C(C)C (centres undefined) | 21.7
O=C1C=C(NCCOCCO)C(=O)c2c(O)ccc(O)c21 | > 100
CC(C)[Si]1(C(C)C)OCC2OC3(CO)C(Oc4nc(=O)ccn43)C2O[Si](C(C)C)(C(C)C)O1 (centres undefined) | 23.2

Each compound was assayed on EKVX NSCLC (assay: NCI tumour cell line growth inhibition, 48 h).

Structure (SMILES) | TGI [µM]
Cn1c2c(c3ccccc31)CCN1C(=O)CN(C(=O)C3CCCCC3)CC21 (centres undefined) | > 100
CCOC(=O)c1nc2cc(F)c(N3CCOCC3)cc2[nH]c1=O | > 100
CCCC(=O)N1CCN(c2ccc3c(c2)OC(C)O3)CC1 (centres undefined) | > 100
COC(=O)C1=C(O)c2ccc(Cl)cc2S(=O)(=O)N1C | > 100
C=C(Nc1nc2ccc(C)cc2s1)C(=O)C(CC)C(=O)C(CC)CC1C(=O)NC(=O)NC1=O (centres undefined) | > 100
CCOC(=O)[C@H](C)OC(=O)[C@@](C)(NC(=O)c1ccccc1C(=O)OC)[C@@H]1NC=C(C(=O)OC)CS1 | > 100
Cn1c2ccccc2c(=O)c2cccc(C(=O)NC(CS)C(=O)O)c21 (centres undefined) | > 100
COc1ccc(N=NC(=O)NC(CC(C)C)C(=O)NC(C)C(=O)O)cc1 (centres undefined) | > 100
CCOC(=O)NNC(=O)NCCCCNC(=O)NNC(=O)OCC | > 100
COC(=O)c1nsc(OC)c1Cl | > 100
Cc1c2cccc-2c(OCCO)cc2c3ccccc3n(C)c12 | 8.69
c1ccc2c(c1)SCCC2NC1=NCCO1 (centres undefined) | > 100
C=CCN(C(=O)CNC(=O)C(F)(F)F)c1cc(OCc2ccccc2)c2c(c1)c(C)cn2S(=O)(=O)c1ccccc1 | > 100
COc1ccc(C[C@H]2COC(=O)[C@@H]2Cc2cccc(Br)c2)cc1OC | 97.1
CSc1ccsc1-c1sc(-c2cc(SC)c(-c3sc(-c4cc(SC)c(-c5sccc5SC)s4)cc3SC)s2)cc1SC | > 100
COc1cccc(C2c3cc4c(cc3OC(C)(N3CCCC3)C2C)OCO4)c1 (centres undefined) | 92.1
CCSC1=N/C(=C\c2ccc(N(C)C)cc2)C(Cl)=N1 | > 100
COC1(OC)CCCc2c1no[n+]2[O-] | > 100
CC1=C(/C=C/C(C)=C/C=C/C(C)=C/C(=O)OC2CC(n3cc(F)c(=O)[nH]c3=O)OC2CO)C(C)(C)CCC1 (centres undefined) | 32.9
CC(C)C(C/C=C1\CC(CO)(COC(=O)C(C)(C)C)OC1=O)C(C)C (centres undefined) | 24.8
CC(C)[Si]1(C(C)C)OCC2OC3(CO)C(Oc4nc(=O)ccn43)C2O[Si](C(C)C)(C(C)C)O1 (centres undefined) | 35

The compounds below were run on MDA-MB-435 (assay: NCI tumour cell line growth inhibition, 48 h).

Structure (SMILES) | TGI [µM]
Cn1c2c(c3ccccc31)CCN1C(=O)CN(C(=O)C3CCCCC3)CC21 (centres undefined) | > 100
CCOC(=O)c1nc2cc(F)c(N3CCOCC3)cc2[nH]c1=O | > 100
CCCC(=O)N1CCN(c2ccc3c(c2)OC(C)O3)CC1 (centres undefined) | > 100
